Data published in patent publication US9084766B2, “Compounds and compositions for targeting cancer stem cells” (Boston Biomedical, Inc., priority 2010, dated 2015).
Where “and” joins values, the source holds several entries; their conditions need not be identical. Equal values may be shown once. Entries after “also recorded” stand apart in the source; their conditions may differ. Read-outs that look alike come from different tables or passages of the source.

Experiments:
[1] = tested on: FaDu human head and neck cancer; assay: Antitumor activity in subcutaneous FaDu xenograft mice; assay type: in vivo
Experimental: In the studies shown in FIG. 8, immunosuppressed mice with established subcutaneous FaDu human head and neck cancer were given indicated amount of hand grounded Compound 1 with Crystal Form 1, or vehicle control orally (po). Compound 1 was formulated in […]™. All regimens were administered daily (qd). Tumor sizes were evaluated periodically during treatment.
In the study shown in FIG. 9, immunosuppressed mice with established subcutaneous FaDu human head and neck cancer were given 100 mg/kg of micronized Compound 1 produced with the synthetic process described in FIGS. 5A and 5B (first crop), or vehicle control orally (po). Compound 1 was formulated in […]™. All regimens were administered daily (qd). Tumor sizes were evaluated periodically during treatment. Form 2 has been successfully manufactured by a current good manufacturing practice (cGMP) process and received approval from the FDA and Health Canada to be used in clinical trials.
Form 3 can only be generated from Form 1 using a specially designed slurry process described herein. […] In the study shown in FIG. 10, immunosuppressed mice with established subcutaneous FaDu human head and neck cancer were given 200 mg/kg of Compound 1 with hand grounded Crystal Form 1 or Form 3, or vehicle control orally (po). Compound 1 was formulated in gelucire. All regimens were administered daily (qd). Tumor sizes were evaluated periodically during treatment. This polymorph has been successfully manufactured by a cGMP process and received approval from FDA and Health Canada to be used in clinical trials.
The anti-tumor activity of particles of Compound 1 with different particle size ranges is illustrated in FIG. 15, and the pharmacokinetic data for particles of Compound 1 with different particle size ranges is illustrated in FIGS. 16-18. In the study shown in FIG. 15, immunosuppressed mice with established subcutaneous FaDu human head and neck cancer were given indicated amount of Compound 1 with indicated particle size, or vehicle control orally (po). All regimens were administered daily (qd). Tumor size was evaluated periodically.
In an experiment, a formulation of Compound 1 particles sieved to 160 micron was tested in the model of immunosuppressed mice with established subcutaneous xenograft FaDu human head and neck cancer. The pharmaceutical composition was formulated as 80 mg/ml in 9% Gelucire, 20% Vitamin E TPGS (Table 3). […] All regimens were administered daily (qd).
In an experiment, Compound 1 crystals were milled to a median particle size of about 20 micron. […] All regimens were administered daily (qd).
FaDu human head and neck cancer cells were inoculated subcutaneously into female athymic nude mice (6×10^6 cells/mouse) and allowed to form palpable tumors. When the tumors reached approximately 100 mm^3, the animals were treated orally (po) with Compound 1 at 100 mg/kg or vehicle control daily. Compound 1 was formulated at 10 mg/ml in 20% gelucire. Tumors and bodyweights were measured throughout treatment (FIG. 15).
Daily examinations into the health status of each animal were also conducted. Body weights were checked every three days. Food and water was supplied daily according to the animal husbandry procedures of the facility. Treatment producing>20% lethality and or >20% net body weight loss were considered toxic. Results are expressed as mean tumor volume (mm^3)±SE. P Values<0.05 are considered to be statistically relevant.
Male or female athymic nude mice 4-5 weeks (Charles River Laboratories, Wilmington, Mass.), were acclimated to the animal housing facility for at least 1 week before study initiation. […]

[2] = Phase I clinical trial: plasma pharmacokinetics; assay type: in vivo, human; parameters: AUC0-24 hrs: concentration or dose not given beside the values; conditions: for AUC0-24 hrs: in µM·h
Experimental: A favorable PK profile with oral bid dosing was also observed. The plasma concentration reached several folds over efficacious concentration (in vitro IC50).
In yet another suitable dosing regimen, Compound 1 is administered with food which delays the Tmax (Table 13).

[3] = Compound concentration in patient urine; assay type: in vivo, human

CC(=O)c1cc2c(o1)C(=O)c1ccccc1C2=O [Compound 1, 2-acetyl-4H,9H-naphtho[2,3-b]furan-4,9-dione]
anti-tumor activity ([1]; composition of particle size less than 5 micron, mice): potent anti-tumor activity | efficacy ([1]; composition with particle size greater than 20 micron, mice): no or weak efficacy | efficacy ([1]; median particle size about 2 micron, 100 mg/kg po daily, 20% gelucire, 100 mg/kg): surprisingly enhanced anti-tumor activity; also recorded: good efficacy; also recorded: strong efficacy; also recorded: potent efficacy | efficacy ([1]; median particle size about 2 micron, 100 mg/kg po daily, 20% gelucire, listed as naphthofuran compound, 100 mg/kg): dramatically enhanced efficacy | efficacy ([1]; median particle size about 20 micron, 200 mg/kg daily oral, 200 mg/kg): weak or moderate efficacy | efficacy ([1]; median particle size about 20 micron, 200 mg/kg daily oral, listed as naphthofuran compound, 200 mg/kg): relative weak | anti-tumor activity ([1]; nanoparticles, D50 about 100 nanometers (110.4 nanometers)): reduction of anti-tumor activity | efficacy ([1]; particles sieved to 160 micron (150 micron), 400 mg/kg daily oral, 400 mg/kg): no efficacy | efficacy ([1]; particles sieved to 160 micron (150 micron), 400 mg/kg daily oral, listed as naphthofuran compound, 400 mg/kg): no efficacy | clearance from blood ([2]; 20 mg QD (FIG. 21)): rapidly cleared from the blood | time plasma concentration sustained at at least 1.5 μM ([2]; 320 mg/day dose level): over 8 hours | plasma concentration sustained ([2]; 320 mg/day dose level, for over 8 hours): at least 1.5 μM | Cmax ([2]; Fasting): 2550 nM | AUC0-24 hrs ([2]; Fasting): 20.72 | pharmacokinetics (linearity) ([2]; doses through about 1000 mg/day): apparent linear pharmacokinetics | AUC(0-t) ([2]; human, plasma, oral, 80 mg, total daily dose 80 mg, BID dosing, read-out: AUC0-24): 7.95 µM·h | AUC(0-t) ([2]; human, plasma, oral, 160 mg, total daily dose 160 mg, BID dosing, read-out: AUC0-24): 9.52 µM·h | AUC(0-t) ([2]; human, plasma, oral, 320 mg, total daily dose 320 mg, BID dosing, read-out: AUC0-24): 29.8 µM·h | AUC(0-t) ([2]; human, plasma, oral, 400 mg, total daily dose 400 mg, BID dosing, read-out: AUC0-24): 53.6 µM·h | AUC(0-t) ([2]; human, plasma, oral, 600 mg, total daily dose 600 mg, BID dosing, read-out: AUC0-24): 27.3 µM·h | AUC(0-t) ([2]; human, plasma, oral, 800 mg, total daily dose 800 mg, BID dosing, read-out: AUC0-24): 26.4 µM·h | AUC(0-t) ([2]; human, plasma, oral, 1000 mg, total daily dose 1000 mg, BID dosing, read-out: AUC0-24): 42.6 µM·h | AUC(0-t) ([2]; human, plasma, oral, 1400 mg, total daily dose 1400 mg, BID dosing, read-out: AUC0-24): 28.4 µM·h | AUC(0-t) ([2]; human, plasma, oral, 2000 mg, total daily dose 2000 mg, BID dosing, read-out: AUC0-24): 39.1 µM·h | Cmax ([2]; human, plasma, oral, Fasting): 2010 nM | AUC(0-t) ([2]; human, plasma, oral, Fasting, read-out: AUC0-24 hrs): 20.1 µM·h | Tmax ([2]; human, plasma, oral, patient 20, Fasting): 2 h | Tmax ([2]; human, plasma, oral, patient 20, With Food): 8 h | Tmax ([2]; human, plasma, oral, patient 20, With Milk): 2 h | Tmax ([2]; human, plasma, oral, patient 21, Fasting): 6 h | Tmax ([2]; human, plasma, oral, patient 21, With Food): 6 h | Tmax ([2]; human, plasma, oral, patient 21, With Milk): 6 h | Tmax ([2]; human, plasma, oral, patient 22, Fasting): 8 h | Tmax ([2]; human, plasma, oral, patient 22, With Food): 10 h | Tmax ([2]; human, plasma, oral, patient 22, With Milk): 8 h | Tmax ([2]; human, plasma, oral, patient 24, With Food): 10 h | Tmax ([2]; human, plasma, oral, patient 24, With Milk): 6.3 h | Tmax ([2]; human, plasma, oral, patient 27, With Food): 6 h | Tmax ([2]; human, plasma, oral, patient 27, With Milk): 0.5 h | Tmax ([2]; human, plasma, oral, patient 28, With Food): 10 h | Tmax ([2]; human, plasma, oral, patient 28, With Milk): 6 h | Cmax ([2]; human, plasma, oral, with Milk): 3050 nM | AUC(0-t) ([2]; human, plasma, oral, with Milk, read-out: AUC0-24 hrs): 31.4 µM·h | drug accumulation ([2]; repeated daily dosing every 28 days, doses through about 1000 mg/day): no evidence of drug accumulation | Cmax ([2]; with Milk): 2890 nM | AUC0-24 hrs Fold Change ([2]; with Milk versus Fasting): 1.56 and 1.55 | Cmax Fold Change ([2]; with Milk versus Fasting): 1.52 and 1.13 | AUC0-24 hrs ([2]; with Milk): 32.16 | BBI608 concentration in patient urine ([3]; patient 7, total daily dose 320 mg, 120-240 min post dose): 4.3 µM | BBI608 concentration in patient urine ([3]; patient 7, total daily dose 320 mg, 360-480 min post dose): 23.1 µM | BBI608 concentration in patient urine ([3]; patient 8, total daily dose 320 mg, 120-240 min post dose): 7.9 µM | BBI608 concentration in patient urine ([3]; patient 8, total daily dose 320 mg, 360-480 min post dose): 1.8 µM | BBI608 concentration in patient urine ([3]; patient 9, total daily dose 320 mg, 120-240 min post dose): 8.9 µM | BBI608 concentration in patient urine ([3]; patient 9, total daily dose 320 mg, 360-480 min post dose): 23.6 µM | BBI608 concentration in patient urine ([3]; patient 10, total daily dose 320 mg, 120-240 min post dose): 22.7 µM | BBI608 concentration in patient urine ([3]; patient 10, total daily dose 320 mg, 360-480 min post dose): 26.2 µM | BBI608 concentration in patient urine ([3]; patient 11, total daily dose 320 mg, 120-240 min post dose): 1.8 µM | BBI608 concentration in patient urine ([3]; patient 11, total daily dose 320 mg, 360-480 min post dose): 4.5 µM | BBI608 concentration in patient urine ([3]; patient 12, total daily dose 400 mg, 120-240 min post dose): 4.11 µM | BBI608 concentration in patient urine ([3]; patient 12, total daily dose 400 mg, 360-480 min post dose): 3.86 µM | BBI608 concentration in patient urine ([3]; patient 14, total daily dose 400 mg, 120-240 min post dose): 1.42 µM | BBI608 concentration in patient urine ([3]; patient 14, total daily dose 400 mg, 360-480 min post dose): 5 µM | BBI608 concentration in patient urine ([3]; patient 15, total daily dose 600 mg, 120-240 min post dose): 3.1 µM | BBI608 concentration in patient urine ([3]; patient 15, total daily dose 600 mg, 360-480 min post dose): 10.65 µM | BBI608 concentration in patient urine ([3]; patient 17, total daily dose 600 mg, 120-240 min post dose): 1.66 µM | BBI608 concentration in patient urine ([3]; patient 17, total daily dose 600 mg, 360-480 min post dose): 45.35 µM | BBI608 concentration in patient urine ([3]; patient 18, total daily dose 600 mg, 120-240 min post dose): 2.41 µM | BBI608 concentration in patient urine ([3]; patient 18, total daily dose 600 mg, 360-480 min post dose): 6.3 µM | BBI608 concentration in patient urine ([3]; patient 20, total daily dose 800 mg, 120-240 min post dose): 6.17 µM | BBI608 concentration in patient urine ([3]; patient 20, total daily dose 800 mg, 360-480 min post dose): 118.25 µM | BBI608 concentration in patient urine ([3]; patient 21, total daily dose 800 mg, 120-240 min post dose): 0.42 µM | BBI608 concentration in patient urine ([3]; patient 21, total daily dose 800 mg, 360-480 min post dose): 7.42 µM | BBI608 concentration in patient urine ([3]; patient 23, total daily dose 800 mg, 120-240 min post dose): 2.51 µM | BBI608 concentration in patient urine ([3]; patient 23, total daily dose 800 mg, 360-480 min post dose): 11.97 µM
